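Exposure lasted 48 hours, with cells grown in 96-well plates and compounds tested at five concentrations. The concentration for 50% growth inhibition is given as GI50.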 The source made the active and inactive calls. No stated cut-off is given here; in the data, active = GI50 up to about 1.1 µM and inactive = higher.
Columns and labels:
Experiment in all cases: NCI anticancer screen, dose series, 48 h
OVCAR-3 = test system: OVCAR-3
U-251 = test system: U-251
MOLT-4 = test system: MOLT-4
UACC-62 = test system: UACC-62
XF498 = test system: XF498
NCI-H460 = test system: NCI-H460
LOX IMVI = test system: LOX IMVI
HCT-116 = test system: HCT-116
SNB-78 = test system: SNB-78
SNB-75 = test system: SNB-75
SN12C = test system: SN12C
A549 = test system: A549
OVCAR-4 = test system: OVCAR-4
KM12 = test system: KM12
RPMI-8226 = test system: RPMI-8226
COLO 205 = test system: COLO 205
UO-31 = test system: UO-31
MCF7 = test system: MCF7
HOP-62 = test system: HOP-62
OVCAR-5 = test system: OVCAR-5
M19-MEL = test system: M19-MEL
SK-MEL-5 = test system: SK-MEL-5
CAKI-1 = test system: CAKI-1
IGROV-1 = test system: IGROV-1
SW-620 = test system: SW-620
SF-268 = test system: SF-268
OVCAR-8 = test system: OVCAR-8
HOP-18 = test system: HOP-18
HL-60 = test system: HL-60
DMS-114 = test system: DMS-114
A498 = test system: A498
SF-295 = test system: SF-295
NCI/ADR-RES = test system: NCI/ADR-RES
DMS-273 = test system: DMS-273
SK-MEL-2 = test system: SK-MEL-2
HOP-92 = test system: HOP-92
HCT-15 = test system: HCT-15
SF-539 = test system: SF-539
DLD-1 = test system: DLD-1
CCRF-CEM = test system: CCRF-CEM
NCI-H23 = test system: NCI-H23
EKVX = test system: EKVX
SNB-19 = test system: SNB-19
KM-20L2 = test system: KM-20L2
HT-29 = test system: HT-29
NCI-H522 = test system: NCI-H522
NCI-H226 = test system: NCI-H226
Malme-3M = test system: Malme-3M
HCC 2998 = test system: HCC 2998
UACC-257 = test system: UACC-257
SK-OV-3 = test system: SK-OV-3
RXF 393 = test system: RXF 393
K562 = test system: K562
SR = test system: SR
SK-MEL-28 = test system: SK-MEL-28
786-0 = test system: 786-0
LXFL 529 = test system: LXFL 529
M14 = test system: M14
ACHN = test system: ACHN
TK-10 = test system: TK-10

**Q.** Which results are given for `CC1[C@@H]2CC=C3C4CCC5Cc6nc7c(nc6C[C@@]5(C)C4CC(=O)[C@]32CO[C@@]1(O)C(O)CC(C)(C)O)CC1CCC2C3=C[C@H]4O[C@@]5(O[C@@](C)(CO)C[C@@H]5O)C(C)[C@@]4(O)[C@]3(C)[C@@H](O)CC2[C@]1(C)C7` (stereo not given in full)?
**A.** GI50 (OVCAR-3): 0.491 µM (active); GI50 (U-251): < 0.00036 µM (active); GI50 (MOLT-4): 0.00157 µM (active); GI50 (UACC-62): 0.00381 µM (active); GI50 (XF498): 0.00242 µM (active); GI50 (NCI-H460): 0.00151 µM (active); GI50 (LOX IMVI): 6.9 nM (active); GI50 (HCT-116): 0.023 µM (active); GI50 (SNB-78): 0.00146 µM (active); GI50 (SNB-75): < 0.36 nM (active); GI50 (SN12C): 0.274 µM (active); GI50 (A549): 0.0031 µM (active); GI50 (OVCAR-4): 431 nM (active); GI50 (KM12): 0.0181 µM (active); GI50 (RPMI-8226): < 0.00036 µM (active); GI50 (COLO 205): 0.015 µM (active); GI50 (UO-31): 0.0259 µM (active); GI50 (MCF7): 10.9 nM (active); GI50 (HOP-62): 0.000495 µM (active); GI50 (OVCAR-5): 0.00773 µM (active); GI50 (M19-MEL): 0.237 µM (active); GI50 (SK-MEL-5): 0.0102 µM (active); GI50 (CAKI-1): 0.0132 µM (active); GI50 (IGROV-1): 0.0101 µM (active); GI50 (SW-620): 0.00933 µM (active); GI50 (SF-268): 0.00676 µM (active); GI50 (OVCAR-8): 0.127 µM (active); GI50 (HOP-18): 0.269 µM (active); GI50 (HL-60): < 0.00036 µM (active); GI50 (DMS-114): 0.000513 µM (active); GI50 (A498): 0.00108 µM (active); GI50 (SF-295): < 0.00036 µM (active); GI50 (NCI/ADR-RES): 612 nM (active); GI50 (DMS-273): < 0.00036 µM (active); GI50 (SK-MEL-2): 0.00775 µM (active); GI50 (HOP-92): 0.0041 µM (active); GI50 (HCT-15): 15 nM; GI50 (SF-539): 0.00201 µM (active); GI50 (DLD-1): 0.111 µM (active); GI50 (CCRF-CEM): 0.000753 µM (active); GI50 (NCI-H23): 0.00308 µM (active); GI50 (EKVX): 0.000386 µM (active); GI50 (SNB-19): 0.0366 µM (active); GI50 (KM-20L2): 6.9 nM (active); GI50 (HT-29): 0.00459 µM (active); GI50 (NCI-H522): 45.5 nM (active); GI50 (NCI-H226): 0.00622 µM (active); GI50 (Malme-3M): 0.0166 µM (active); GI50 (HCC 2998): 0.0243 µM (active); GI50 (UACC-257): 0.0491 µM (active); GI50 (SK-OV-3): 0.00184 µM (active); GI50 (RXF 393): < 0.00036 µM (active); GI50 (K562): 0.0112 µM (active)

**Q.** With `O=C1OC(=O)C2C3CCC(O3)C12` (stereo not given) as the compound, how does the GI50 (OVCAR-3) read?
**A.** Its GI50 is > 100 µM (inactive).

**Q.** What about the GI50 (U-251) of the same compound?
**A.** Its GI50 is > 100 µM (inactive).

**Q.** What about the GI50 (MOLT-4) of the same compound?
**A.** The GI50 was > 100 µM (inactive).

**Q.** And the GI50 (UACC-62)?
**A.** Its GI50 is > 100 µM (inactive).

**Q.** What about the GI50 (XF498) of the same compound?
**A.** Its GI50 is > 100 µM (inactive).

**Q.** And the GI50 (NCI-H460)?
**A.** The GI50 was > 100 µM (inactive).

**Q.** What about the GI50 (HCT-116) of the same compound?
**A.** The GI50 was > 100 µM (inactive).

**Q.** What about the GI50 (SNB-78) of the same compound?
**A.** The GI50 was > 100 µM (inactive).

**Q.** What about the GI50 (SN12C) of the same compound?
**A.** Its GI50 is > 100 µM (inactive).

**Q.** And the GI50 (A549)?
**A.** Its GI50 is > 100 µM (inactive).

**Q.** What about the GI50 (SR) of the same compound?
**A.** Its GI50 is > 100 µM (inactive).

**Q.** What about the GI50 (KM12) of the same compound?
**A.** The GI50 was > 100 µM (inactive).

**Q.** And the GI50 (RPMI-8226)?
**A.** Its GI50 is > 100 µM (inactive).

**Q.** And the GI50 (COLO 205)?
**A.** Its GI50 is > 100 µM (inactive).

**Q.** And the GI50 (UO-31)?
**A.** Its GI50 is > 100 µM (inactive).

**Q.** What about the GI50 (HOP-62) of the same compound?
**A.** Its GI50 is > 100 µM (inactive).

**Q.** And the GI50 (OVCAR-5)?
**A.** Its GI50 is > 100 µM (inactive).

**Q.** And the GI50 (M19-MEL)?
**A.** Its GI50 is > 100 µM (inactive).

**Q.** What about the GI50 (SK-MEL-5) of the same compound?
**A.** Its GI50 is > 100 µM (inactive).

**Q.** What about the GI50 (SK-MEL-28) of the same compound?
**A.** Its GI50 is > 100 µM (inactive).

**Q.** What about the GI50 (CAKI-1) of the same compound?
**A.** Its GI50 is > 100 µM (inactive).

**Q.** And the GI50 (786-0)?
**A.** The GI50 was > 100 µM (inactive).

**Q.** And the GI50 (IGROV-1)?
**A.** The GI50 was > 100 µM (inactive).

**Q.** What about the GI50 (SW-620) of the same compound?
**A.** Its GI50 is > 100 µM (inactive).

**Q.** What about the GI50 (SF-268) of the same compound?
**A.** Its GI50 is > 100 µM (inactive).

**Q.** And the GI50 (LXFL 529)?
**A.** The GI50 was > 100 µM (inactive).

**Q.** And the GI50 (OVCAR-8)?
**A.** The GI50 was > 100 µM (inactive).

**Q.** What about the GI50 (HOP-18) of the same compound?
**A.** The GI50 was > 100 µM (inactive).

**Q.** And the GI50 (HL-60)?
**A.** Its GI50 is > 100 µM (inactive).

**Q.** And the GI50 (DMS-114)?
**A.** The GI50 was > 100 µM (inactive).

**Q.** And the GI50 (A498)?
**A.** The GI50 was > 100 µM (inactive).

**Q.** What about the GI50 (SF-295) of the same compound?
**A.** Its GI50 is > 100 µM (inactive).

**Q.** What about the GI50 (M14) of the same compound?
**A.** Its GI50 is > 100 µM (inactive).

**Q.** What about the GI50 (DMS-273) of the same compound?
**A.** Its GI50 is > 100 µM (inactive).

**Q.** And the GI50 (SK-MEL-2)?
**A.** The GI50 was > 100 µM (inactive).

**Q.** And the GI50 (HOP-92)?
**A.** The GI50 was > 100 µM (inactive).

**Q.** What about the GI50 (SF-539) of the same compound?
**A.** The GI50 was > 100 µM (inactive).

**Q.** What about the GI50 (DLD-1) of the same compound?
**A.** Its GI50 is > 100 µM (inactive).

**Q.** And the GI50 (CCRF-CEM)?
**A.** The GI50 was > 100 µM (inactive).

**Q.** What about the GI50 (NCI-H23) of the same compound?
**A.** Its GI50 is > 100 µM (inactive).

**Q.** What about the GI50 (ACHN) of the same compound?
**A.** The GI50 was > 100 µM (inactive).

**Q.** And the GI50 (TK-10)?
**A.** The GI50 was > 100 µM (inactive).

**Q.** What about the GI50 (EKVX) of the same compound?
**A.** The GI50 was > 100 µM (inactive).

**Q.** What about the GI50 (SNB-19) of the same compound?
**A.** Its GI50 is > 100 µM (inactive).

**Q.** What about the GI50 (HT-29) of the same compound?
**A.** Its GI50 is > 100 µM (inactive).

**Q.** What about the GI50 (NCI-H226) of the same compound?
**A.** The GI50 was > 100 µM (inactive).

**Q.** What about the GI50 (Malme-3M) of the same compound?
**A.** Its GI50 is > 100 µM (inactive).

**Q.** And the GI50 (HCC 2998)?
**A.** The GI50 was > 100 µM (inactive).

**Q.** And the GI50 (UACC-257)?
**A.** Its GI50 is > 100 µM (inactive).

**Q.** And the GI50 (SK-OV-3)?
**A.** Its GI50 is > 100 µM (inactive).

**Q.** And the GI50 (RXF 393)?
**A.** Its GI50 is > 100 µM (inactive).

**Q.** What about the GI50 (K562) of the same compound?
**A.** The GI50 was > 100 µM (inactive).

Source: ChEMBL document CHEMBL1201862, “PubChem BioAssay data set” (2004)
